Data: PubChem BioAssay (NCI)
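Method: 48-hour compound exposure of cells in 96-well plates, five concentrations, linear interpolation of endpoints. At the TGI there is no net growth.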

How the values were obtained:
Test in all cases: DTP human tumour cell line panel, 48 h
CAKI-1 renal = system: CAKI-1 renal
U251 CNS = system: U251 CNS
A549 NSCLC = system: A549 NSCLC
SF-268 CNS = system: SF-268 CNS
RXF 393 renal = system: RXF 393 renal
K-562 leukemia = system: K-562 leukemia
RPMI-8226 leukemia = system: RPMI-8226 leukemia
SF-539 CNS = system: SF-539 CNS
HT29 colon = system: HT29 colon
HOP-92 NSCLC = system: HOP-92 NSCLC

Row | SMILES | TGI (CAKI-1 renal) [µM] | TGI (U251 CNS) [µM] | TGI (A549 NSCLC) [µM] | TGI (SF-268 CNS) [µM] | TGI (RXF 393 renal) [µM] | TGI (K-562 leukemia) [µM] | TGI (RPMI-8226 leukemia) [µM] | TGI (SF-539 CNS) [µM] | TGI (HT29 colon) [µM] | TGI (HOP-92 NSCLC) [µM]
1 | COc1cccc2c1[C@]1(O)C(O)CCCC21 (stereo not given in full) | > 100 | > 100 | > 100 | > 100 | > 100 | > 100 | > 100 | > 100 | > 100 | 
2 | C/C(=C\CNc1nc(Cl)nc2nc[nH]c12)CO | > 100 |  | > 100 | > 100 | > 100 | > 100 | > 100 | > 100 | > 100 | > 100
3 | CC1(C)O[C@@H](CP(c2cccc3ccccc23)c2cccc3ccccc23)[C@H](CP(c2cccc3ccccc23)c2cccc3ccccc23)O1 | > 100 | > 100 | > 100 | > 100 | > 100 | > 100 |  |  | > 100 | 
4 | Cc1cccc2c1C(=O)[C@@](C)([C@]1(C)Nc3cccc(C)c3C1=O)N2 | > 100 | > 100 | > 100 | > 100 | > 100 | > 100 | > 100 | > 100 | > 100 | 
5 | N#Cc1c(-c2ccc(Cl)cc2)cc(-c2nc3ccccc3[nH]2)nc1N | 46.6 |  | 20.9 | 34.6 |  | 54.9 | 47.1 | 31.7 | 25.5 | 26.3
6 | O=C1OC2C=CC1C1(CCOC1=O)C2 (stereo not given) | > 100 | > 100 | > 100 | > 100 |  | > 100 | > 100 | > 100 |  | > 100
7 | Oc1ccc2ccccc2c1OCc1nnc(CCCCCCCCc2nnc(COc3c(O)ccc4ccccc34)o2)o1 | > 100 | > 100 | > 100 | > 100 | > 100 | > 100 | > 100 |  | > 100 | > 100
8 | CN(CCN(C)C(=O)CCn1ccc(=O)[nH]c1=O)C(=O)CCn1ccc(=O)[nH]c1=O |  | > 100 | > 100 | > 100 | > 100 | > 100 | > 100 | > 100 | > 100 | 
9 | COc1cc(C2(C)SCCCS2)c(I)c(OC)c1OC | > 100 | > 100 | > 100 | > 100 |  | > 100 | > 100 | > 100 | > 100 | > 100
10 | CCOC(=O)N1C(=S)C(C(=O)OC)(C(=O)OC)N=C1C | > 100 | > 100 | > 100 |  | > 100 | > 100 | > 100 |  |  | > 100
11 | Cn1c(=O)c2sc3cc4c(cc3c2c2ccccc21)sc1c(=O)n(C)c2ccccc2c14 | > 100 | 43.6 | > 100 | > 100 | 45 |  | > 100 | > 100 | > 100 | 99.1
12 | CCC1CCC2c3c([nH]c4ccccc34)C3C(=O)N(c4ccc(OC)cc4)C(=O)C3C2C1 (stereo not given) |  | 36.2 | 59.7 | > 100 | > 100 | 60.8 | > 100 | > 100 | > 100 | 
